Measured values from patent US20260226065A1, “SUBSTITUTED BENZENE COMPOUND” (DAIICHI SANKYO COMPANY, LIMITED, priority 2023, published 2026).
Where a name gives a salt, the structure may show the parent alone.

biological target: T1, NLRP3 inflammasome (Homo sapiens, UniProt Q96P20); experiment: In vitro IL-1β production test (PMA-differentiated THP-1 cells, Nigericin stimulation, AlphaLISA); format: cell-based; conditions: inhibition of IL-1β production; THP-1 cells differentiated with 200 nM PMA; 0.015 mM Nigericin; 2 hours
T1 construct: endogenous in cells; host or cells: THP-1 (human monocyte-derived), PMA-differentiated, Nigericin-stimulated
T1 sequence (Q96P20 whole entry): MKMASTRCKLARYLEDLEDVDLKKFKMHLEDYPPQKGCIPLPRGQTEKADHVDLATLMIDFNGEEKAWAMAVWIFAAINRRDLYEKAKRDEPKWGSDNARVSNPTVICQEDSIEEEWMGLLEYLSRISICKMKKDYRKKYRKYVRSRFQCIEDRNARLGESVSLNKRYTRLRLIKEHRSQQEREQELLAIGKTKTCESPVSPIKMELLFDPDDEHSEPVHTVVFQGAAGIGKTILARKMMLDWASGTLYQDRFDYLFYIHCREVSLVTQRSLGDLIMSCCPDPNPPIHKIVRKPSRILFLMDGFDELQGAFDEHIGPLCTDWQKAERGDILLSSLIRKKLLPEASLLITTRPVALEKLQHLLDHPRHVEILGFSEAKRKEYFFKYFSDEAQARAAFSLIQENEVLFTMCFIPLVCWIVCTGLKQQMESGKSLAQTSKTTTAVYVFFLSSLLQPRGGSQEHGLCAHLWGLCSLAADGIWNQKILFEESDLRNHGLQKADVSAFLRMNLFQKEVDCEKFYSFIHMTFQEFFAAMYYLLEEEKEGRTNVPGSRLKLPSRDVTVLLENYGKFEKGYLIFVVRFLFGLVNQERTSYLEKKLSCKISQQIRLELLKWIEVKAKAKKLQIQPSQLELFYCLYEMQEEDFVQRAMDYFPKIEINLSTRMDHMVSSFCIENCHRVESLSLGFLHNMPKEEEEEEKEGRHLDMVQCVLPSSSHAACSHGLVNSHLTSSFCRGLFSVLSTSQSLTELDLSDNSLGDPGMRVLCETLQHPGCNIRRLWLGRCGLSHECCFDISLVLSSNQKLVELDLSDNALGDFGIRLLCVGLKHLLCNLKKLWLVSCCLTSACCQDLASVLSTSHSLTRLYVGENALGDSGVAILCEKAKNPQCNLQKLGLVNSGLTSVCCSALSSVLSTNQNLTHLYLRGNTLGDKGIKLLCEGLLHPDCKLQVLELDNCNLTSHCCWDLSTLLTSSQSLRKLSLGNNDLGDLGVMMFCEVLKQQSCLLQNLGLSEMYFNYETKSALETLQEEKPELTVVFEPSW
Procedure: Human monocyte-derived THP-1 cells were cultured for one day in 10% bovine serum-containing RPMI-1640 medium (Thermo #A10491-01) supplemented with 200 nM phorbol 12-myristate 13-acetate (PMA, Sigma #P8139) to induce differentiation.
NLRP3 inflammasome was induced by replacing the culture medium with bovine serum-free RPMI-1640 medium supplemented with 0.015 mM Nigericin (Sigma #SML1779) and the test compound of known concentrations.
After 2 hours, the culture medium supernatant was collected and the IL-1β protein concentration was measured using the AlphaLISA (registered trademark) assay (PerkinElmer #AL220C).
The IL-1β concentration without the addition of the test compound and with Nigericin stimulation was set as 0% inhibitory activity, and the IL-1β concentration without Nigericin stimulation was set as 100% inhibitory activity, and the inhibition rate (% inhibition) of the test compound at each added concentration was calculated.
The % inhibition value was subjected to sigmoid fitting using a logistic regression model to calculate the 50% inhibitory concentration (IC50 value).

Row | SMILES | IC50 [nM]
1 | Cc1cn([C@H]2C[C@@](C)(O)C2)c2nnc(-c3c(O)cc(C(F)(F)F)cc3C#N)cc12 [Example 53, 3-hydroxy-2-{7-[(1s,3s)-3-hydroxy-3-methylcyclobutyl]-5-methyl-7H-pyrrolo[2,3-c]pyridazin-3-yl}-5-(trifluoromethyl)benzonitrile] | 275
2 | Cc1cc(C#N)cc(O)c1-c1cc2c(C)cn([C@H]3C[C@@](C)(O)C3)c2nn1 [Example 52, 3-hydroxy-4-{7-[(1s,3s)-3-hydroxy-3-methylcyclobutyl]-5-methyl-7H-pyrrolo[2,3-c]pyridazin-3-yl}-5-methylbenzonitrile] | 39.1
3 | Cc1cc(C(F)(F)F)cc(O)c1-c1cc2ccn(C34CCCC(O)(C3)C4)c2nn1 [Example 88, 5-{3-[2-hydroxy-6-methyl-4-(trifluoromethyl)phenyl]-7H-pyrrolo[2,3-c]pyridazin-7-yl}bicyclo[3.1.1]heptan-1-ol] | 43.1
4 | Cc1cc(C(F)(F)F)cc(O)c1-c1cc2ccn([C@H]3C[C@@](C)(O)[C@H]3C)c2nn1 (racemic) [Example 42, 2-{7-[(1S*,2S*,3R*)-3-hydroxy-2,3-dimethylcyclobutyl]-7H-pyrrolo[2,3-c]pyridazin-3-yl}-3-methyl-5-(trifluoromethyl)phenol] | 74
5 | Cc1cc(C(F)(F)F)cc(O)c1-c1cc2c(C)cn(C34COCC(O)(C3)C4)c2nn1 [Example 65, 5-{3-[2-hydroxy-6-methyl-4-(trifluoromethyl)phenyl]-5-methyl-7H-pyrrolo[2,3-c]pyridazin-7-yl}-3-oxabicyclo[3.1.1]heptan-1-ol] | 47
6 | Cc1cc(C(F)(F)F)cc(O)c1-c1cc2c(nn1)N([C@H]1C[C@@](C)(O)C1)C(C)C2 (mixture of isomers) [Example 86, 2-{7-[(1s,3s)-3-hydroxy-3-methylcyclobutyl]-6-methyl-6,7-dihydro-5H-pyrrolo[2,3-c]pyridazin-3-yl}-3-methyl-5-(trifluoromethyl)phenol] | 141
7 | Cc1cc(C(F)(F)F)cc(O)c1-c1cc2c(nn1)N([C@H]1C[C@@](C)(O)C1)CC2C (mixture of isomers) [Example 85, 2-{7-[(1s,3s)-3-hydroxy-3-methylcyclobutyl]-5-methyl-6,7-dihydro-5H-pyrrolo[2,3-c]pyridazin-3-yl}-3-methyl-5-(trifluoromethyl)phenol] | 65.3
8 | CCN1[C@H]2CC[C@@H]1[C@H](n1cc(C)c3cc(-c4c(C)cc(C(F)(F)F)cc4O)nnc31)CC2 (single isomer, unassigned) [Example 76, 2-{7-[(1R,2R,5S or 1S,2S,5R)-8-ethyl-8-azabicyclo[3.2.1]octan-2-yl]-5-methyl-7H-pyrrolo[2,3-c]pyridazin-3-yl}-3-methyl-5-(trifluoromethyl)phenol] | 10.1
9 | Cc1cn([C@H]2C[C@@](C)(O)C2)c2nnc(-c3c(O)cc(Cl)cc3Cl)cc12 [Example 63, 3,5-dichloro-2-{7-[(1s,3s)-3-hydroxy-3-methylcyclobutyl]-5-methyl-7H-pyrrolo[2,3-c]pyridazin-3-yl}phenol] | 42.3
10 | CCN1[C@H]2CC[C@H](N3CCc4cc(-c5c(C)cc(C(F)(F)F)cc5O)nnc43)[C@@H]1CC2 (racemic) [Example 17, 2-{7-[(1S*, 2S*, 5R*)-8-ethyl-8-azabicyclo[3.2.1]octan-2-yl]-6,7-dihydro-5H-pyrrolo[2,3-c]pyridazin-3-yl}-3-methyl-5-(trifluoromethyl)phenol] | 9.47
11 | Cc1c(-c2ccc(C(F)(F)F)cc2O)nnc2c1CCN2[C@H]1C[C@@](C)(O)C1 [Example 39, 2-{7-[(1s,3s)-3-hydroxy-3-methylcyclobutyl]-4-methyl-6,7-dihydro-5H-pyrrolo[2,3-c]pyridazin-3-yl}-5-(trifluoromethyl)phenol] | 401
12 | Cc1cc(C(F)(F)F)cc(O)c1-c1cc2c(nn1)N([C@H]1C[C@@](C)(O)C1)CC2 [Example 40, 2-{7-[(1s,3s)-3-hydroxy-3-methylcyclobutyl]-6,7-dihydro-5H-pyrrolo[2,3-c]pyridazin-3-yl}-3-methyl-5-(trifluoromethyl)phenol monohydrochloride] | 162

Continued by falling IC50, values first:

Row | IC50 [nM] | SMILES
13 | 25.9 | Cc1cc(C(F)(F)F)cc(O)c1-c1cc2c3c(n([C@H]4C[C@@](C)(O)C4)c2nn1)CCC3 [Example 12, 2-{8-[(1s,3s)-3-hydroxy-3-methylcyclobutyl]-5,6,7,8-tetrahydrocyclopenta[4,5]pyrrolo[2,3-c]pyridazin-3-yl}-3-methyl-5-(trifluoromethyl)phenol]
14 | 23.8 | Cc1cc(C(F)(F)F)cc(O)c1-c1cc2c(nn1)N([C@@H]1CCCN(C)C1)[C@H](C)C2 (single isomer, unassigned) [Example 55, 3-methyl-2-{(6R or 6S)-6-methyl-7-[(3R)-1-methylpiperidin-3-yl]-6,7-dihydro-5H-pyrrolo[2,3-c]pyridazin-3-yl}-5-(trifluoromethyl)phenol]
15 | 15.4 | Cc1cc(C(F)(F)F)cc(O)c1-c1cc2c(C)cn(C34CCCC(O)(C3)C4)c2nn1 [Example 8, 5-{3-[2-hydroxy-6-methyl-4-(trifluoromethyl)phenyl]-5-methyl-7H-pyrrolo[2,3-c]pyridazin-7-yl}bicyclo[3.1.1]heptan-1-ol]
16 | 13.8 | Cc1cc(C(F)(F)F)cc(O)c1-c1cc2c(nn1)N(c1ncc(F)cn1)[C@@H]1CCO[C@H]21 (single isomer, unassigned) [Example 98, 2-[(4bR,7aR or 4bS,7aS)-8-(5-fluoropyrimidin-2-yl)-6,7,7a,8-tetrahydro-4bH-furo[2′,3′:4,5]pyrrolo[2,3-c]pyridazin-3-yl]-3-methyl-5-(trifluoromethyl)phenol]
17 | 13.2 | Cc1cc(Cl)cc(O)c1-c1cc2c(C)cn([C@H]3C[C@@](C)(O)C3)c2nn1 [Example 9, 5-chloro-2-{7-[(1s,3s)-3-hydroxy-3-methylcyclobutyl]-5-methyl-7H-pyrrolo[2,3-c]pyridazin-3-yl}-3-methylphenol]
18 | 12.8 | Cc1cc(C(F)(F)F)cc(O)c1-c1cc2ccn(-c3ncc(F)cn3)c2nn1 [Example 84, 2-[7-(5-fluoropyrimidin-2-yl)-7H-pyrrolo[2,3-c]pyridazin-3-yl]-3-methyl-5-(trifluoromethyl)phenol]
19 | 12 | COc1cn([C@H]2C[C@@](C)(O)C2)c2nnc(-c3c(C)cc(Cl)cc3O)cc12 [Example 28, 5-chloro-2-{7-[(1s,3s)-3-hydroxy-3-methylcyclobutyl]-5-methoxy-7H-pyrrolo[2,3-c]pyridazin-3-yl}-3-methylphenol]
20 | 10.5 | CCN1CCC[C@@H](N2CCc3cc(-c4c(C)cc(OC(F)F)cc4O)nnc32)C1 [Example 22, 5-(difluoromethoxy)-2-{7-[(3R)-1-ethylpiperidin-3-yl]-6,7-dihydro-5H-pyrrolo[2,3-c]pyridazin-3-yl}-3-methylphenol]
21 | 9.6 | CCN1CCC[C@@H](n2cc(C#N)c3cc(-c4c(C)cc(C(F)(F)F)cc4O)nnc32)C1 [Example 64, 7-[(3R)-1-ethylpiperidin-3-yl]-3-[2-hydroxy-6-methyl-4-(trifluoromethyl)phenyl]-7H-pyrrolo[2,3-c]pyridazine-5-carbonitrile]
22 | 8.81 | Cc1cc(C(F)(F)F)cc(O)c1-c1cc2c(C#N)cn([C@H]3C[C@@](C)(O)C3)c2nn1 [Example 45, 7-[(1s,3s)-3-hydroxy-3-methylcyclobutyl]-3-[2-hydroxy-6-methyl-4-(trifluoromethyl)phenyl]-7H-pyrrolo[2,3-c]pyridazine-5-carbonitrile]
23 | 8.19 | CCN1CCC[C@@H](n2cc(C)c3cc(-c4c(C)cc(C(F)(F)F)cc4O)nnc32)C1 [Example 20, 2-{7-[(3R)-1-ethylpiperidin-3-yl]-5-methyl-7H-pyrrolo[2,3-c]pyridazin-3-yl}-3-methyl-5-(trifluoromethyl)phenol]
24 | 7.32 | CCN1CCC[C@@H](N2CCc3cc(-c4c(C)cc(C(F)(F)F)cc4O)nnc32)C1 [Example 11, 2-{7-[(3R)-1-ethylpiperidin-3-yl]-6,7-dihydro-5H-pyrrolo[2,3-c]pyridazin-3-yl}-3-methyl-5-(trifluoromethyl)phenol]
25 | 6.01 | Cc1cc(OC(F)F)cc(O)c1-c1cc2c(C#N)cn([C@@H]3CCCN(C(C)C)C3)c2nn1 [Example 68, 3-[4-(difluoromethoxy)-2-hydroxy-6-methylphenyl]-7-[(3R)-1-(propan-2-yl)piperidin-3-yl]-7H-pyrrolo[2,3-c]pyridazine-5-carbonitrile]
26 | 5.27 | Cc1cc(C(F)(F)F)cc(O)c1-c1cc2c(nn1)N([C@@H]1CCCN(C)C1)CC2 [Example 1, 3-methyl-2-{7-[(3R)-1-methylpiperidin-3-yl]-6,7-dihydro-5H-pyrrolo[2,3-c]pyridazin-3-yl}-5-(trifluoromethyl)phenol]
27 | 5.26 | Cc1cc(C(F)(F)F)cc(O)c1-c1cc2ccn([C@@H]3CCCN(C)C3)c2nn1 [Example 2, 3-methyl-2-{7-[(3R)-1-methylpiperidin-3-yl]-7H-pyrrolo[2,3-c]pyridazin-3-yl}-5-(trifluoromethyl)phenol]
28 | 4.93 | CCN1CCC[C@@H](n2cc(C#N)c3cc(-c4c(C)cc(OC(F)F)cc4O)nnc32)C1 [Example 67, 3-[4-(difluoromethoxy)-2-hydroxy-6-methylphenyl]-7-[(3R)-1-ethylpiperidin-3-yl]-7H-pyrrolo[2,3-c]pyridazine-5-carbonitrile]
